Article PMC3914206

Assays:
Assay type in all cases: binding
Settings in all cases: Compound Concentration 10 µM
panel of 442 kinases [1] = biological target: T1, panel of 442 kinases (Homo sapiens, UniProt P11802)
T1 construct: purchased KINOMEscan
From the text: (§1) We assessed the selectivity of members of this scaffold using the KINOMEscan methodology across a near comprehensive panel of 442 kinases [[18,27]].

panel of 442 kinases [2] = biological target: T2, panel of 442 kinases (Homo sapiens, UniProt P22455)
T2 construct: purchased KINOMEscan
T2 sequence (P22455 22-802): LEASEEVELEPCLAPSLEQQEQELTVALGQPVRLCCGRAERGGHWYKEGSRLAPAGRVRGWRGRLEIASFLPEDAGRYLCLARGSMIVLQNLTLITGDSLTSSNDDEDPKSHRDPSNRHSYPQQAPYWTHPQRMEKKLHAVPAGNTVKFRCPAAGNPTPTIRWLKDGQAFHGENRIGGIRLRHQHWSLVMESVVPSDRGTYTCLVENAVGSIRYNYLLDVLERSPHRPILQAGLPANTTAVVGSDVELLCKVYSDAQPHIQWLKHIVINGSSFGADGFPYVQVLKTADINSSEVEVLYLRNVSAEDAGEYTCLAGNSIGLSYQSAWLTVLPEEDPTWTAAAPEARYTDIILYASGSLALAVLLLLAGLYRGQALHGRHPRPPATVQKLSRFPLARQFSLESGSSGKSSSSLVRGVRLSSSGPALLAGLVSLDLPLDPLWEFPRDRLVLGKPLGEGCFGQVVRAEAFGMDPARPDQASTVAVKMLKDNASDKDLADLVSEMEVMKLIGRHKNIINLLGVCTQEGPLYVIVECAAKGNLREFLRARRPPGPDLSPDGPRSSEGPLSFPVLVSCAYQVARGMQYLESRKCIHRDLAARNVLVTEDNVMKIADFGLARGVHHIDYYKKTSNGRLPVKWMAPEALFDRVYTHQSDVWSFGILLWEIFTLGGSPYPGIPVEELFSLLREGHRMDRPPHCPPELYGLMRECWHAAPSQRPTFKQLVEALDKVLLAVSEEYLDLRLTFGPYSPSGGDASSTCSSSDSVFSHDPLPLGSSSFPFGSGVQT
From the text: as §1

panel of 442 kinases [3] = biological target: T3, panel of 442 kinases (Homo sapiens, UniProt P53779)
T3 construct: purchased KINOMEscan
T3 sequence (P53779 whole entry): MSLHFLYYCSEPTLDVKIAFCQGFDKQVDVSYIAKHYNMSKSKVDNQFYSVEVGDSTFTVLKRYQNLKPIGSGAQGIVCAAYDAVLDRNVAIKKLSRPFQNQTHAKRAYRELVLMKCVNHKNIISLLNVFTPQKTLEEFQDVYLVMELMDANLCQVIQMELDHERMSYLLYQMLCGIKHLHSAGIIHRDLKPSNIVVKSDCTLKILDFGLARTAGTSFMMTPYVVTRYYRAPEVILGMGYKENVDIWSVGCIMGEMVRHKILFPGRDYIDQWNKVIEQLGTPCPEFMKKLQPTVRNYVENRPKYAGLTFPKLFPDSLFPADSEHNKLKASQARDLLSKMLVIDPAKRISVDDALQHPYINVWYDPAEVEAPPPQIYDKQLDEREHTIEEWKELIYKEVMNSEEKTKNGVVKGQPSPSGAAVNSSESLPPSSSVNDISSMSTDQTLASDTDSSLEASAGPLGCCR
From the text: as §1

panel of 442 kinases [4] = biological target: T4, panel of 442 kinases (Homo sapiens, UniProt Q9NQU5)
T4 construct: purchased KINOMEscan
T4 sequence (Q9NQU5 whole entry): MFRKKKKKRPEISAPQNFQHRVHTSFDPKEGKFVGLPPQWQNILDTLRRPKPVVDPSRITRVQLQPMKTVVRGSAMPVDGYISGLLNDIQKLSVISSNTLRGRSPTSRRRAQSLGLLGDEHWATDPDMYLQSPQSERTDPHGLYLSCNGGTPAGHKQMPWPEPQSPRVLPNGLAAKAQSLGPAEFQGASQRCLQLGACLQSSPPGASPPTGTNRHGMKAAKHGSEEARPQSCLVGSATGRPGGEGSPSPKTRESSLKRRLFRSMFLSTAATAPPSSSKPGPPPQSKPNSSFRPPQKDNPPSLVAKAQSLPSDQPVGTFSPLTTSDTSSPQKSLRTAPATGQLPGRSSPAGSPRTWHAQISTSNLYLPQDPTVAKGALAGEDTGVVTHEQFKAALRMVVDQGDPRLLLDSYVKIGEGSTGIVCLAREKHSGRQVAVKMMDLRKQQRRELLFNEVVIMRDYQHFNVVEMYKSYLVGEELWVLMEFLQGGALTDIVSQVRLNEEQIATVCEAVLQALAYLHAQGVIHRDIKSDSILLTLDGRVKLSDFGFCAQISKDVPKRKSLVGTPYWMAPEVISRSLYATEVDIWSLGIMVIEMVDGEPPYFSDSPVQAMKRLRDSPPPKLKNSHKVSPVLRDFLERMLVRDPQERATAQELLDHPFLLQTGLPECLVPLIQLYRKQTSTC
From the text: as §1

T1 sequence (P11802 whole entry): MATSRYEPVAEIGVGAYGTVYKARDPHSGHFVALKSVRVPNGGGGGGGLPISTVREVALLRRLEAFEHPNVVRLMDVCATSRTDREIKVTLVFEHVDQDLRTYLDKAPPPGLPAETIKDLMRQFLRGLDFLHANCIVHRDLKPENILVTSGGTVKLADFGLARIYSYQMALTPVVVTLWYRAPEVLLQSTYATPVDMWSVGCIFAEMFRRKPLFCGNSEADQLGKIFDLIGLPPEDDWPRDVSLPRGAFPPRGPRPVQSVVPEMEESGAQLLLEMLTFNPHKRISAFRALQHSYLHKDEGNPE

Compound | KINOMEscan: CDK4-cyclinD1 (panel of 442 kinases [1]) | KINOMEscan: CDK4-cyclinD3 (panel of 442 kinases [1]) | KINOMEscan: FGFR4 (panel of 442 kinases [2]) | KINOMEscan: JNK3 (panel of 442 kinases [3]) | KINOMEscan: PAK6 (panel of 442 kinases [4])
COc1cc(C(=O)N2CCC(N3CCN(C)CC3)CC2)ccc1Nc1ncc2c(n1)N(C1CCCC1)c1ccccc1C(=O)N2C [Compound 25, 11-cyclopentyl-2-((2-methoxy-4-(4-(4-methylpiperazin-1-yl)piperidine-1-carbonyl)phenyl)amino)-5-methyl-5H-benzo[e]pyrimido[5,4-b][1,4]diazepin-6(11H)-one] | 100 | 73 | 75 | 48 | 86
CCOc1cc(C(=O)N2CCC(N3CCN(C)CC3)CC2)ccc1Nc1ncc2c(n1)N(C1CCCC1)c1ccccc1C(=O)N2C [Compound 26] | 91 | 100 | 100 | 74 | 100
COc1cc(C(=O)N2CCC(N3CCN(C)CC3)CC2)ccc1Nc1ncc2c(n1)N1CCc3cccc(c31)C(=O)N2C [Compound 24] | – | – | 23 | 43 | –
COc1cc(C(=O)N2CCC(N3CCN(C)CC3)CC2)ccc1Nc1ncc2c(n1)N(C)c1ccccc1C(=O)N2C [15 (LRRK2-IN-1)] | 100 | 100 | 28 | 77 | 98
